Measurements published in patent US10494379B2, “6-oxa-3,9,15-triaza-bicyclo[9.3.1]pentadeca-1(14),11(15),12-triene derivatives based compounds and their application as ligands of essential metal ion based MRI and 52MN based PET contrast agents” (DEBRECENI EGYETEM, priority 2015, dated 2019).

Legend:
[1] = Equilibrium study: stability constants of Mn(II) complexes and calculated pMn; assay type: physicochemical; details: 25° C., 0.15M NaCl; for pMn: calculated from equilibrium constants at pH = 7.4 and cMn = cL = 10^−5 M
Procedure: (§1) During the physico-chemical studies of tOPC2A, tOPC2M^Pyp and tOPC2M^Pro compounds prepared according to Example 1, 2, and 5, their protonation constants, as well as equilibrium behaviour and kinetic inertness of their Mn(II) complexes was studied in detail, and the characteristic relaxivity values of the complexes were determined in the presence and absence of HSA (Human Serum Albumin), at 25 and 37° C. and physiological pH. All studies were performed in the presence of 0.15 M NaCl, the same concentration as that of the electrolyte under physiological conditions.
(§2) The results of equilibrium study are summarized in Table 1, in addition to the protonation constants, total basicity of ligands and stability constants of their Mn(II) complexes, the pMn value calculated for complexes are also represented in the table.
Based on the pMn values presented in Table 1 (calculated using the equilibrium constants at pH=7.4 and cMn=cL=10^−5 M), it can be concluded that the studied Mn(II) complexes are formed in 100% at physiological pH, which is an essential aspect of the practical use.

[2] = Equilibrium study: protonation constants and total basicity of the ligands; assay type: physicochemical; details: 25° C., 0.15M NaCl
Procedure: as §1, §2

[3] = literature values, 'under the same conditions'; cited from earlier work
[4] = cited from earlier work

Row | logKMnL (stability constant of Mn(II) complex) [1] | pMn [1] | logK1 (protonation constant) [2] | logK2 (protonation constant) [2] | logK3 (protonation constant) [2] | logK4 (protonation constant) [2] | ΣlogKi^H (total basicity) [2] | SMILES | r1 (relaxivity) [3] [mM⁻¹ s⁻¹] | Gd(III) release at 37° C. relative to value calculated from experiments at 25° C. ([4]; 37° C. vs 25° C.) [fold] | Gd(III) ion released during in vivo dissociation ([4]; 37° C.) [%]
1 | 10.03(1) | 7.37 | 7.37(3) | 5.14(4) | 3.26(4) | 2.40(4) | 18.17 | O=C(O)C1CCCN1C(=O)CN1CCOCCN(CC(=O)N2CCCC2C(=O)O)Cc2cccc(n2)C1 (stereo not shown) [tOPC2AM^Pro] | – | – | –
2 | 10.84(4) | 7.60 | 7.91(2) | 5.51(3) | – | – | 13.42 | O=C(CN1CCOCCN(CC(=O)N2CCCCC2)Cc2cccc(n2)C1)N1CCCCC1 [tOPC2AM^Pyp, 3,9-bis[2-oxo-2-(piperidin-1-yl)-ethyl]-6-oxa-3,9,15-triaza-bicyclo[9.3.1]pentadeca-1(14),11(15),12-triene] | – | – | –

More lines, now with the values behind:

Row | SMILES | logKMnL (stability constant of Mn(II) complex) [1] | pMn [1] | logK1 (protonation constant) [2] | logK2 (protonation constant) [2] | logK3 (protonation constant) [2] | logK4 (protonation constant) [2] | ΣlogKi^H (total basicity) [2] | r1 (relaxivity) [3] [mM⁻¹ s⁻¹] | Gd(III) release at 37° C. relative to value calculated from experiments at 25° C. ([4]; 37° C. vs 25° C.) [fold] | Gd(III) ion released during in vivo dissociation ([4]; 37° C.) [%]
3 | CNC[C@H](O)[C@@H](O)[C@H](O)[C@H](O)CO.CNC[C@H](O)[C@@H](O)[C@H](O)[C@H](O)CO.O=C([O-])CN(CCN(CC(=O)[O-])CC(=O)O)CCN(CC(=O)[O-])CC(=O)O.[Gd+3] [MAGNEVIST] | – | – | – | – | – | – | – | 4.02 | 4.4 | 2.2
4 | CNC[C@H](O)[C@@H](O)[C@H](O)[C@H](O)CO.O=C([O-])CN1CCN(CC(=O)[O-])CCN(CC(=O)O)CCN(CC(=O)[O-])CC1.[Gd+3] [DOTAREM] | – | – | – | – | – | – | – | 3.83 | – | –
5 | O=C(O)CN1CCOCCN(CC(=O)O)Cc2cccc(n2)C1 [tOPC2A, 4-oxo-1,7-diaza-2,6-pyridinophane-diacetate] | 13.03(1) | 8.59 | 7.73(2) | 7.66(1) | 2.13(1) | – | 17.52 | – | – | –
